Measurements taken from patent US20040097595A1, “Phthalamide derivatives, insecticides for agricultural and horticultural use and method for application thereof” (priority 2001, published 2004).

Legend:
Type in all cases: in vivo
[1] = tested on: Common Cutworm (Spodoptera litura); experiment: Comparative Example 2: insecticidal effect on common cutworm by soil treatment for cabbage; set-up: concentration or dose not given beside the values; details: granules in planting holes; leaf cut eleven days after transplanting; first-instar larvae; three days after inoculation
Protocol: Insecticidal Effect on Common Cutworm (Spodoptera litura) by Soil Treatment for Cabbage
At the time of trans-planting cabbage plants (cultivar: YR Seitoku), planting holes were treated with granules prepared from compound 1-51 according to Formulation Example. Eleven days after the transplanting, a leaf was cut off from the cabbage plant, placed in a plastic Petri dish, and then inoculated with 20 first-instar larvae of common cutworm. Thereafter, the dish was closed and then allowed to stand in a room thermostatted at 25° C. Three days after the inoculation, the dead and alive were counted and the mortality was calculated in the same manner as in Comparative Test Example 1.

[2] = tested on: Common Cutworm (Spodoptera litura); experiment: Comparative Test Example 1: insecticidal effect on common cutworm, treated synthetic diet; details: 192 h, synthetic diet treated with 0.5 ml, third-instar larvae, eight days after inoculation
Protocol: (§1) Insecticidal Effect on Common Cutworm (Spodoptera litura)
A synthetic diet packed in a plastic Petri dish was treated with 0.5 ml of a liquid chemical prepared by diluting a preparation containing compound 1-51 as an active ingredient to adjust the prescribed concentration, by adding the liquid chemical dropwise to the synthetic diet. The synthetic diet was inoculated with third-instar larvae of common cutworm, after which the dish was closed and then allowed to stand in a room thermostatted at 25° C. Eight days after the inoculation, the dead and alive were counted, and the mortality was calculated according to the following equation. The test was carried out with triplicate groups of 10 insects. [formula]
The compounds described in JP-A-2001-131141 were used as comparative compounds as follows: […]

[3] = tested on: Diamond Back Moth (Plutella xylostella); experiment: Test Example 1: insecticidal effect on diamond back moth, Chinese cabbage seedling with eggs immersed in liquid chemical; details: eggs on Chinese cabbage seedling immersed about 30 seconds, six days after immersion, 25° C.
Text: Insecticidal Effect on Diamond Back Moth (Plutella xylostella)
Adult diamond back moths were released and allowed to oviposit on a Chinese cabbage seedling. Two days after the release, the seedling having the eggs deposited thereon was immersed for about 30 seconds in a liquid chemical prepared by diluting a preparation containing each compound listed in Table 1 or 2 as an active ingredient to adjust the prescribed concentration. After air-dryness, it was allowed to stand in a room thermostatted at 25° C. Six days after the immersion, the hatched insects were counted. The mortality was calculated according to the following equation and the insecticidal effect was judged according to the criterion shown below. The test was carried out with triplicate groups of 10 insects. [formula]

[4] = tested on: Common Cutworm (Spodoptera litura); experiment: Test Example 2: insecticidal effect on common cutworm, cabbage leaf immersion; details: cabbage leaf immersed, second-instar larvae, eight days after inoculation, 25° C.
Text: as §1
A piece of cabbage leaf (cultivar; Shikidori) was immersed for about 30 seconds in a liquid chemical prepared by diluting a preparation containing each compound listed in Table 1 or 2 as an active ingredient to adjust the prescribed concentration. After air-dryness, it was placed in a plastic Petri dish with a diameter of 9 cm and inoculated with second-instar larvae of common cutworm, after which the dish was closed and then allowed to stand in a room thermostatted at 25° C. Eight days after the inoculation, the dead and alive were counted. The mortality was calculated according to the following equation and the insecticidal effect was judged according to the criterion shown in Test Example 1. The test was carried out with triplicate groups of 10 insects. [formula]

Compound | Mortality, Highest leaf [1] [%] | Mortality, Second highest leaf [1] [%] | Mortality, Third highest leaf [1] [%] | mortality at 5 ppm [2] [%] | mortality at 50 ppm [2] [%] | mortality at 500 ppm [2] [%] | Test Example 1 insecticidal effect (mortality grade) ([3]; 5 ppm) | Test Example 1 insecticidal effect (mortality grade) ([3]; 50 ppm) | Test Example 2 insecticidal effect (mortality grade) ([4]; 5 ppm) | Test Example 2 insecticidal effect (mortality grade) ([4]; 50 ppm)
CC(C)(CS(C)(=O)=O)NC(=O)c1c(I)cccc1C(=O)Nc1ccc(OC(F)(F)F)cc1Cl [Compound B, N^1-[2-chloro-4-(trifluoromethoxy)phenyl]-3-iodo-N^2-(1,1-dimethyl-2-methylsulfonylethyl)phthalamide] | 0 | 50 | 100 | 0 | 100 | 100 |  |  |  | 
CSCC(C)(C)NC(=O)c1c(I)cccc1C(=O)Nc1ccc(OC(F)F)c(Cl)c1Cl [Compound 1-43] |  |  |  |  |  |  | A (Mortality 100%) | A (Mortality 100%) | A (Mortality 100%) | A (Mortality 100%)
C[S+]([O-])CC(C)(C)NC(=O)c1c(I)cccc1C(=O)Nc1ccc(OC(F)(F)C(F)OC(F)(F)F)cc1Cl (centres unmarked) [Compound 1-75] |  |  |  |  |  |  | A (Mortality 100%) | A (Mortality 100%) | E (Mortality 49-0%) | A (Mortality 100%)
CSCC(C)(C)NC(=O)c1c(I)cccc1C(=O)Nc1ccc(Oc2c(Cl)cc(C(F)(F)F)c(F)c2Cl)cc1Cl [Compound 1-93] |  |  |  |  |  |  | A (Mortality 100%) | A (Mortality 100%) | E (Mortality 49-0%) | C (Mortality 89-80%)
CSCC(C)(C)NC(=O)c1c(I)cccc1C(=O)Nc1ccc(C(F)(F)F)cc1Cl [Compound 1-20] |  |  |  |  |  |  | A (Mortality 100%) | A (Mortality 100%) | A (Mortality 100%) | A (Mortality 100%)
C[S+]([O-])CC(C)(C)NC(=O)c1c(I)cccc1C(=O)Nc1ccc(OC(F)F)c(Cl)c1Cl (centres unmarked) [Compound 1-44] |  |  |  |  |  |  | A (Mortality 100%) | A (Mortality 100%) | E (Mortality 49-0%) | A (Mortality 100%)
C[S+]([O-])CC(C)(C)NC(=O)c1c(I)cccc1C(=O)Nc1ccc(C(F)(F)F)cc1Cl (centres unmarked) [Compound 1-21] |  |  |  |  |  |  | A (Mortality 100%) | A (Mortality 100%) | C (Mortality 89-80%) | A (Mortality 100%)
CSCC(C)(C)NC(=O)c1c(I)cccc1C(=O)Nc1ccc(OC(F)(F)Cl)cc1Cl [Compound 1-48] |  |  |  |  |  |  | A (Mortality 100%) | A (Mortality 100%) | A (Mortality 100%) | A (Mortality 100%)
CC(C)(CS(C)(=O)=O)NC(=O)c1c(I)cccc1C(=O)Nc1ccc(OC(F)(F)C(F)OC(F)(F)F)cc1Cl (centres unmarked) [Compound 1-76] |  |  |  |  |  |  | A (Mortality 100%) | A (Mortality 100%) | E (Mortality 49-0%) | A (Mortality 100%)
CSCC(C)(C)NC(=O)c1c(I)cccc1C(=O)Nc1ccc(Oc2ncc(C(F)(F)F)cc2Cl)cc1Cl [Compound 1-95] |  |  |  |  |  |  | A (Mortality 100%) | A (Mortality 100%) | E (Mortality 49-0%) | A (Mortality 100%)
C[S+]([O-])CC(C)(C)NC(=O)c1c(I)cccc1C(=O)Nc1ccc(OC(F)(F)C(F)C(F)(F)F)c(Cl)c1Cl (centres unmarked) [Compound 1-70] |  |  |  |  |  |  | A (Mortality 100%) | A (Mortality 100%) | E (Mortality 49-0%) | A (Mortality 100%)
CSCC(C)(C)NC(=O)c1c(I)cccc1C(=O)Nc1ccc(Oc2ccc(C(F)(F)F)cn2)cc1Cl [Compound 1-94] |  |  |  |  |  |  | A (Mortality 100%) | A (Mortality 100%) | E (Mortality 49-0%) | A (Mortality 100%)
C[S+]([O-])CC(C)(C)NC(=O)c1c(I)cccc1C(=O)Nc1ccc(OC(F)(F)C(F)OC(F)(F)C(F)(F)C(F)(F)F)cc1Cl (centres unmarked) [Compound 1-82] |  |  |  |  |  |  | A (Mortality 100%) | A (Mortality 100%) | C (Mortality 89-80%) | A (Mortality 100%)
CC(C)(CS(C)(=O)=O)NC(=O)c1c(I)cccc1C(=O)Nc1ccc(Oc2ncc(C(F)(F)F)cc2Cl)cc1Cl [Compound 1-97] |  |  |  |  |  |  | A (Mortality 100%) | A (Mortality 100%) | E (Mortality 49-0%) | A (Mortality 100%)
CSCC(C)(C)NC(=O)c1c(I)cccc1C(=O)Nc1ccc(OC(F)(F)C(F)Cl)cc1Cl (centres unmarked) [Compound 1-58] |  |  |  |  |  |  | E (Mortality 49-0%) | A (Mortality 100%) | E (Mortality 49-0%) | A (Mortality 100%)
CSCC(C)(C)NC(=O)c1c(I)cccc1C(=O)Nc1ccc(OC(F)(F)F)cc1Cl [Compound A, N^1-[2-chloro-4-(trifluoromethoxy)phenyl]-N^2-(1,1-dimethyl-2-methylthioethyl)-3-iodophthalamide] | 0 | 95 | 100 | 5 | 100 | 100 |  |  |  | 
